Experimental data published in patent publication US20020099035A1, “Method for preparing alpha-sulfonyl hydroxamic acid derivatives” (priority 2001, published 2002).
Structures can show the parent of a compound that is named as a salt.

Columns and labels:
[1] = target: T1, MMP9 (human neutrophil gelatinase B) (Homo sapiens, UniProt P14780); assay: In vitro gelatinase assay (thiopeptide substrate, DTNB); type: biochemical
T1 construct: from tissue; host or cells: human neutrophils
Experimental: The assay is based on the cleavage of the thiopeptide substrate ((Ac-Pro-Leu-Gly(2 mercapto-4 methyl-pentanoyl)-Leu-Gly-OEt), Bachem Bioscience) by the enzyme, gelatinase, releasing the substrate product which reacts calorimetrically with DTNB ((5,5′-dithio-bis(2-nitro-benzoic acid)). The enzyme activity is measured by the rate of the color increase.
The thiopeptide substrate is made up fresh as a 20 mM stock in 100% DMSO and the DTNB is dissolved in 100% DMSO as a 100 mM stock and stored in dark at room temperature. Both the substrate and DTNB are diluted together to 1 mM with substrate buffer (50 mM HEPES pH 7.5, 5 mM CaCl2) before use. The stock of human neutrophil gelatinase B is diluted with assay buffer (50 mM HEPES pH 7.5, 5 mM CaCl2, 0.02% Brij) to a final concentration of 0.15 nM. The assay buffer, enzyme, DTNB/substrate (500 μM final concentration) and vehicle or inhibitor are added to a 96 well plate (total reaction volume of 200 μl ) and the increase in color is monitored spectrophotometrically for 5 minutes at 405 nm on a plate reader.
The increase in OD405 is plotted and the slope of the line is calculated which represents the reaction rate.
(§1) The linearity of the reaction rate is confirmed (r^2>0.85). The mean (x±sem) of the control rate is calculated and compared for statistical significance (p<0.05) with drug-treated rates using Dunnett's multiple comparison test. […]

[2] = target: T2, TACE (Homo sapiens, UniProt P78536); assay: Procedure for measuring TACE inhibition (fluorescent peptidyl substrate); type: biochemical
T2 construct: purchased Immunex
Experimental: […] The reaction is initiated by addition of a fluorescent peptidyl substrate (final concentration 100 μM) to each well and then shaking on a shaker for 5 sec.
The reaction is read (excitation 340 nm, emission 420 nm) for 10 min. and the increase in fluorescence over time is plotted as a linear line. The slope of the line is calculated and represents the reaction rate.
The linearity of the reaction rate is confirmed (r^2>0.85). The mean (x±sem) of the control rate is calculated and compared for statistical significance (p<0.05) with drug-treated rates using Dunnett's multiple comparison test. Dose-response relationships can be generate using multiple doses of drug and IC50 values with 95% CI are estimated using linear regression.

[3] = target: MMP13 (Homo sapiens, UniProt P45452); assay: MMP13 inhibition; type: biochemical
[4] = target: T3, MMP1 (human recombinant fibroblast collagenase) (Homo sapiens, UniProt P03956); assay: In vitro collagenase assay (fluorogenic peptide substrate); type: biochemical; details: read-out: MMP1 (1C50)
T3 construct: human recombinant fibroblast collagenase (truncated, mw=18,828, WAR, Radnor)
T3 sequence (P03956 100-269 limits assumed): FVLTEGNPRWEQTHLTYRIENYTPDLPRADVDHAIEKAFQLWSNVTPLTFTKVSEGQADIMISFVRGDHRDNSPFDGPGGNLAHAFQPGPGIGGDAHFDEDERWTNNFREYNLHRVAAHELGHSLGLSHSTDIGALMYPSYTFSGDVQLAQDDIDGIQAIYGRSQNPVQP
Experimental: The assay is based on the cleavage of a peptide substrate ((Dnp-Pro-Cha-Gly-Cyns(Me)-His-Ala-Lys(NMa)-NH2), Peptide International, Inc.) by collagenase releasing the fluorescent NMa group which is quantitated on the fluorometer. Dnp quenches the NMa fluorescence in the intact substrate. The assay is run in HCBC assay buffer (50 mM HEPES, pH 7.0, 5 mM Ca^+2, 0.02% Brij, 0.5% Cysteine), with human recombinant fibroblast collagenase (truncated, mw=18,828, WAR, Radnor). Substrate is dissolved in methanol and stored frozen in 1 mM aliquots. Collagenase is stored frozen in buffer in 25 μM aliquots. For the assay, substrate is dissolved in HCBC buffer to a final concentration of 10 μM and collagenase to a final concentration of 5 nM. Compounds are dissolved in methanol, DMSO, or HCBC. The methanol and DMSO are diluted in HCBC to <1.0%. Compounds are added to the 96 well plate containing enzyme and the reaction is started by the addition of substrate.
The reaction is read (excitation 340 nm, emission 444 nm) for 10 min. and the increase in fluorescence over time is plotted as a linear line. The slope of the line is calculated and represents the reaction rate.
as §1

T2 sequence (P78536 215-824): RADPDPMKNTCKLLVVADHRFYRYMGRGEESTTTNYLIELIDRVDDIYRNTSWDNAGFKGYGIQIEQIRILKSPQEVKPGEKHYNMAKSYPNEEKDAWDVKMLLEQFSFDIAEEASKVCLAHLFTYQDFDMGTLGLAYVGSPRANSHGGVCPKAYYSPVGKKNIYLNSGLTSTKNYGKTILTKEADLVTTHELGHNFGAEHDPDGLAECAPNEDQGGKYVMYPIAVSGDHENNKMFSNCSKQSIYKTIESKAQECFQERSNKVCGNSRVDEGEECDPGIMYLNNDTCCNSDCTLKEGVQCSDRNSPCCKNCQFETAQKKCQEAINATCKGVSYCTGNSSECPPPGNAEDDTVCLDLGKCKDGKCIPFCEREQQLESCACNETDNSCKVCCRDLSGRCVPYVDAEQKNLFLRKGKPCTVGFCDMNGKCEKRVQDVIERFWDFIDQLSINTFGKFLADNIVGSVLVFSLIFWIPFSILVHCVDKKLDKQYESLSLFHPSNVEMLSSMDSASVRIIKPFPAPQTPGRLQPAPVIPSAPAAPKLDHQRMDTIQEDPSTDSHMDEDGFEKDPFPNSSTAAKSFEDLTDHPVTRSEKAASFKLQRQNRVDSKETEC
T1 sequence (P14780 94-707): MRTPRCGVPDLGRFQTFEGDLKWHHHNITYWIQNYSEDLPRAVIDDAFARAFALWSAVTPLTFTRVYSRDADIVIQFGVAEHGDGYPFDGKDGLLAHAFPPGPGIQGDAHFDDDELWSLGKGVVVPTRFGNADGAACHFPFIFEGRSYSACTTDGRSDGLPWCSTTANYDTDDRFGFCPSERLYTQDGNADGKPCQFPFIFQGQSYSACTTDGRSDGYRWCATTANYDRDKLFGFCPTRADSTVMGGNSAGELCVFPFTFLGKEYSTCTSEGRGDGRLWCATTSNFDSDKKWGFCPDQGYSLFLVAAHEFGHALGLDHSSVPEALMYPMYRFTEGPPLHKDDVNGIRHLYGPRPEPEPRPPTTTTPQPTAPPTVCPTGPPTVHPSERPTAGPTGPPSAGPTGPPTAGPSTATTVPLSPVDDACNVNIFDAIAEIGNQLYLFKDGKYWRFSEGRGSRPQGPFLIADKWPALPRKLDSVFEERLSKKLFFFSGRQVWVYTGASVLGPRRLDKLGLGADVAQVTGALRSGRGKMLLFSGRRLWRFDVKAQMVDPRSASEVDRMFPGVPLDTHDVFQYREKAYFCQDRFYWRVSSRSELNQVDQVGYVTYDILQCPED

IC50 [1]	inhibition at 10 µM [2]	IC50 [3]	IC50 [4]	melting point	SMILES
732 nM	54%	140 nM	1300 nM	–	COc1ccc(S(=O)(=O)C2(C(=O)NO)CCCN(Cc3ccccc3)C2)cc1 (centres unmarked) [Example 18, 1-Benzyl-3-(4-methoxybenzenesulfonyl)piperidine-3-carboxylic acid hydroxamide]
–	–	–	–	132.9 °C	COc1ccc(S(=O)(=O)C2(C(=O)NO)CCCN(Cc3ccccc3)C2)cc1 (centres unmarked) (as salt: hydrochloride) [Example 18, 1-Benzyl-3-(4-methoxybenzenesulfonyl)piperidine-3-carboxylic acid hydroxamide]
